Source: patent US12173018B2, “Penicillin-binding protein inhibitors” (priority 2018, dated 2024)

What was measured:
K. pneumoniae UMM = assay: microbe, parasite or virus in culture; assay type: cell-based; conditions: Klebsiella pneumoniae; K. pneumoniae UMM producing SHV-5 and KPC-2; read-out: MIC K. pneumoniae UMM
Outline: (§1)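 Colonies from Mueller Hinton II agar were grown 3-5 hours at 37° C in cation-supplemented broth, adjusted by OD600, then added to 2-fold compound dilutions at 5×10^5 CFU/mL. After 16-20 hours at 37° C, MICs were scored visually.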

K. pneumoniae SI-117 = assay: microbe, parasite or virus in culture; assay type: cell-based; conditions: Klebsiella pneumoniae, SI117, read-out: MIC K. pneumoniae SI-117
Outline: as §1

E. coli D22 = assay: microbe, parasite or virus in culture; assay type: cell-based; conditions: Escherichia coli; hyper-permeable E. coli D22, broth microdilution; read-out: MIC E. coli D22
Outline: as §1

E. coli 901C = assay: microbe, parasite or virus in culture; assay type: cell-based; conditions: Escherichia coli; hyper-permeable E. coli 901C, broth microdilution; read-out: MIC E. coli 901C
Outline: as §1

E. coli AG100A = assay: microbe, parasite or virus in culture; assay type: cell-based; conditions: Escherichia coli, read-out: MIC E. coli AG100A
Outline: as §1

E. coli ATCC 25922 = assay: Broth microdilution MIC, E. coli ATCC 25922; assay type: cell-based; conditions: Escherichia coli, ATCC25922; E. coli ATCC 25922, broth microdilution; read-out: MIC E. coli 25922
Outline: as §1

E. coli AG100 = assay: Broth microdilution MIC, E. coli AG100 (wild-type parent); assay type: cell-based; conditions: Escherichia coli; wild-type parent E. coli AG100, broth microdilution; read-out: MIC E. coli AG100
Outline: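 Broth microdilution in cation-supplemented Mueller-Hinton broth, 2-fold serial compound dilutions, inoculum 5×10^5 CFU/mL from 3-5 h log culture.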

K. pneumoniae 848844 = assay: microbe, parasite or virus in culture; assay type: cell-based, Klebsiella pneumoniae; conditions: Klebsiella pneumoniae; K. pneumoniae 848844 producing SHV-11 and KPC-2; read-out: MIC K. pneumoniae 848844
Outline: as §1

SMILES	MIC (K. pneumoniae UMM) [µg/mL]	MIC (K. pneumoniae SI-117) [µg/mL]	MIC (E. coli D22) [µg/mL]	MIC (E. coli 901C) [µg/mL]	MIC (E. coli AG100A) [µg/mL]	MIC (E. coli ATCC 25922) [µg/mL]	MIC (E. coli AG100) [µg/mL]	MIC (K. pneumoniae 848844) [µg/mL]
CCCN1CCN(C(=O)NC(C(=O)N[C@H]2Cc3cccc(C(=O)O)c3OB2O)c2ccc(O)c(O)c2Cl)C(=O)C1=O (stereo partly drawn) [Example 82, (3R)-3-(2-(2-chloro-3,4-dihydroxyphenyl)-2-(2,3-dioxo-4-propylpiperazine-1-carboxamido)acetamido)-2-hydroxy-3,4-dihydro-2H-benzo[e][1,2]oxaborinine-8-carboxylic acid]	32 to 64	32 to 64	2 to 4	2 to 4	2 to 4	32 to 64	32 to 64	> 128
CCN1CCN(C(=O)NC(C(=O)N[C@H]2Cc3cccc(C(=O)O)c3OB2O)c2cccs2)C(=O)C1=O (stereo partly drawn) [Example 115, (3R)-3-(2-(4-ethyl-2,3-dioxopiperazine-1-carboxamido)-2-(thiophen-2-yl)acetamido)-2-hydroxy-3,4-dihydro-2H-benzo[e][1,2]oxaborinine-8-carboxylic acid]	32 to 64	32 to 64	8 to 16	< 0.25	2 to 4	32 to 64	32 to 64	> 128
CCN1CCN(C(=O)NC(C(=O)N[C@H]2Cc3cccc(C(=O)O)c3OB2O)c2cccc(N)n2)C(=O)C1=O (stereo partly drawn) [Example 104, (3R)-3-(2-(6-aminopyridin-2-yl)-2-(4-ethyl-2,3-dioxopiperazine-1-carboxamido)acetamido)-2-hydroxy-3,4-dihydro-2H-benzo[e][1,2]oxaborinine-8-carboxylic acid]	32 to 64	32 to 64	2 to 4	< 0.25	0.5 to 1	8 to 16	32 to 64	> 128
CCN1CCN(C(=O)NC(C(=O)N[C@H]2Cc3cccc(C(=O)O)c3OB2O)c2cccc(O)n2)C(=O)C1=O (stereo partly drawn) [Example 117, (3R)-3-(2-(4-ethyl-2,3-dioxopiperazine-1-carboxamido)-2-(6-hydroxypyridin-2-yl)acetamido)-2-hydroxy-3,4-dihydro-2H-benzo[e][1,2]oxaborinine-8-carboxylic acid]	32 to 64	> 128	8 to 16	0.5 to 1	2 to 4	32 to 64	> 128	32 to 64
CCN1CCN(C(=O)NC(C(=O)N[C@H]2Cc3cc(F)cc(C(=O)O)c3OB2O)c2csc(N)n2)C(=O)C1=O (stereo partly drawn) [Example 16, (3R)-3-(2-(2-aminothiazol-4-yl)-2-(4-ethyl-2,3-dioxopiperazine-1-carboxamido)acetamido)-6-fluoro-2-hydroxy-3,4-dihydro-2H-benzo[e][1,2]oxaborinine-8-carboxylic acid]	32 to 64	32 to 64	8 to 16	0.5 to 1	2 to 4	32 to 64	32 to 64	32 to 64
O=C(O)c1cccc2c1OB(O)[C@@H](NC(=O)C(NC(=O)N1CCN(CCF)C(=O)C1=O)c1ccc(O)c(O)c1Cl)C2 (stereo partly drawn) [Example 71, (3R)-3-(2-(2-chloro-3,4-dihydroxyphenyl)-2-(4-(2-fluoroethyl)-2,3-dioxopiperazine-1-carboxamido)acetamido)-2-hydroxy-3,4-dihydro-2H-benzo[e][1,2]oxaborinine-8-carboxylic acid]	32 to 64			0.5 to 1	2 to 4	8 to 16	2 to 4	
CCN1CCN(C(=O)NC(C(=O)N[C@H]2Cc3cccc(C(=O)O)c3OB2O)c2cnc(N)s2)C(=O)C1=O (stereo partly drawn) [Example 51, (3R)-3-(2-(2-aminothiazol-5-yl)-2-(4-ethyl-2,3-dioxopiperazine-1-carboxamido)acetamido)-2-hydroxy-3,4-dihydro-2H-benzo[e][1,2]oxaborinine-8-carboxylic acid]	32 to 64			0.5 to 1	8 to 16	8 to 16	32 to 64	
